Source: patent US5286735A, “Derivatives of 4-aminomethylpiperidine, their preparation and their use as therapeutics” (Pierre Fabre Medicament, priority 1991, dated 1994)

Target: T1, serotoninergic 5-HT1A receptors (Rattus norvegicus, UniProt P19327)
T1 construct: The hippocampus is crushed with Polytron; from tissue; host or cells: rat hippocampus membranes (male Charles River rats)
T1 sequence (P19327 1-422): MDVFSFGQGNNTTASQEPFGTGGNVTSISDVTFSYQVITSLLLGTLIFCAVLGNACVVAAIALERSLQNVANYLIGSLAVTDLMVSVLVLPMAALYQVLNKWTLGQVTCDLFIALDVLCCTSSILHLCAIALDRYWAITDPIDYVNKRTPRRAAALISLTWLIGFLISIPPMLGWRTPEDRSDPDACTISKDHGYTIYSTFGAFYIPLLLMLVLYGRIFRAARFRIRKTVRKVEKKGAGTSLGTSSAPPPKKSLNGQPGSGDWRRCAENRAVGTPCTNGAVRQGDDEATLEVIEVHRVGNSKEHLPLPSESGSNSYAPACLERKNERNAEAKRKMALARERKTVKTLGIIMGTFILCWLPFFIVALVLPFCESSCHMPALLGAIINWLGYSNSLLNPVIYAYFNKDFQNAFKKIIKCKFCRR
Assay: 5-HT1A binding studies (3H-8-OH-DPAT ligand, rat hippocampus membranes)
Design: species or system rat (male Charles River)
Conditions: 3H-8-OH-DPAT 1 nM, 30 min at 25° C.
Description: The 5-HT1A binding studies were carried out in accordance with Peroutka's technique (see: Peroutka, S. J.: J. Neurochem. 47:529-540, 1986). Male Charles River rats are stunned and decapitated, the brain is removed and dissected. The different cerebral areas obtained are used or preserved at minus 20° C. The hippocampus is crushed with Polytron® (20 seconds at 7) in 20 volumes of 50 mM Tris-HCl buffer (pH 7.7 at 25° C.) and centrifuged at 45,000 g for 10 min. The residue is separated, taken up in the same volume of Tris buffer and incubated for 10 min at 37° C., and then again centrifuged for 10 min at 45, 000 g. The residue is then taken up in 100 volumes of Tris-HCl buffer containing 10 μm of Pargyline, 4 mM CaCl2 and 0.1% ascorbic acid. The mixture obtained is Dounce homogenized.
The binding is effected starting with 0.8 ml of the above membrane suspension to which 0.1 ml of ^3 H-8-OH-DPAT ligand is added (in a concentration of 1 nM) and either 0.1 ml of Tris buffer (control) or the compound of the present invention is added. After incubation for 30 min at 25° C., the mixture is filtered on GF/B (Whatman) and rinsed with 5 ml of iced Tris-HCl buffer. The residue and the filter are finally introduced into a vial containing 3 ml of Instage® scintillating liquid (Packard) and the radioactivity is measured with a Packard counter (Tri-Carbs®). The IC50 are determined graphically for a ligand concentration of 1 nM.

IC50	Compound
7.5 nM	Cc1cccc(C(=O)N2CCC(CNCC3Cc4ccccc4O3)CC2)c1 (stereo not drawn) [Compound 3, 1-(3-Methylbenzoyl) 4-[(2,3-dihydrobenzofuran-2-yl)methylaminomethyl] piperidine]
12.5 nM	Cc1cccc(C(=O)N2CCC(CNCC3CCc4ccccc4C3)CC2)c1 (stereo not drawn) [Compound 5, 1-(3-Methylbenzoyl) 4-[(1,2,3,4-tetrahydronaphthalen-2-yl)methylaminomethyl] piperidine]
3.8 nM	Cc1cccc(C(=O)N2CCC(CNCC3CCc4ccccc4O3)CC2)c1 (stereo not drawn) [Compound 7, 1-(3-Methylbenzoyl) 4-[(3,4-dihydro 2[H].1-benzopyran-2-yl)methylaminomethyl] piperidine]
3 nM	O=C(c1ccccc1)N1CCC(CNCC2COc3ccccc3O2)CC1 (stereo not drawn) [Compound 9, 1-Benzoyl 4-(1,4-benzodioxan-2-ylmethylaminomethyl) piperidine]
4.4 nM	Cc1ccc(CN2CCC(CNCC3COc4ccccc4O3)CC2)cc1 (stereo not drawn) [Compound 17, 1-(4-Methylbenzyl) 4-(1,4-benzodioxan-2-ylmethylaminomethyl) piperidine]
2.1 nM	Clc1cccc(CN2CCC(CNCC3COc4ccccc4O3)CC2)c1 (stereo not drawn) [Compound 22, 1-(3-Chlorobenzyl) 4-(1,4-benzodioxan-2-ylmethylaminomethyl) piperidine]
